Results reported in patent publication US20120121691A1, “Method for Increasing the Production of a Specific ACYL-Chain Dihydroceramide(s) for Improving the Effectiveness of Cancer Treatments” (priority 2010, published 2012).

Legend:
[1] = tested on: intracellular sphingolipids, CCRF-CEM cells; assay: LC/MS/MS analysis of intracellular sphingolipids, CCRF-CEM; type: cell-based, human; settings: for increase in corresponding dihydroceramide over sphinganine plus GT-11 alone: fatty acid in addition to sphinganine plus GT-11, six hours, P<0.05
Description: LC/MS/MS analysis of intracellular sphingolipids. Sphingolipids were separated using an Agilent 1200 HPLC (LC) and determined by ESI/MS/MS performed on a AB SCIEX 4000 QTRAP Hybrid Triple Quadrupole/Linear Ion Trap mass spectrometer (MS), operating in a multiple reaction monitoring positive ionization mode as described previously with moderate modifications (25). Briefly, 50 μL of a solution (1 μM) of internal sphingolipid standards (including -sphingosine, -sphinganine, -sphingosine-1-phosphate, and -ceramide) was added to each cell pellet sample. Lipids of each sample were extracted twice with 2 mL of the ethyl acetate/isopropyl alcohol/water (60:28:12; v:v) solvent system. Supernatants were transferred to glass tubes (Kimble Chase) and evaporated under air (10 PSI) at 40° C. After reconstitution in methanol (4 mL), 1 ml of each sample was separated for the determination of lipid phosphate. Remaining sample (3 mL) was dried and used for sphingolipid quantification. For ESI/MS/MS, the dried lipid sample was dissolved in mobile phase A. Samples were injected (10 μL) and separated on a Spectra C8SR, 150×3.0 mm, 3-μm particle size column using gradient-elution (mobile phase A/B, prepared as previously described).
Data acquisition, peak integration and analyte quantitation were performed using ABI/SCIEX Analyst 1.4.2 Software. Sphingolipid data were normalized to lipid phosphate as previously described (26). Briefly, samples were dried under air (10 PSI) and lipids were extracted using the method of Bligh and Dyer (27). Of importance for phosphate assay, only Kimble Chase disposable borosilicate tubes were used for minimal sample contamination. Organic phase was transferred to glass tubes and a known volume was separated to a new tube and dried at 80° C. Phosphate standards and dried samples were then heated with ashing buffer (water:10 N:70% [40:9:1]) at 160° C. overnight. Samples were then incubated with ammonium molybdate and ascorbic acid as previously described, and absorbance ([…]) was read using a SpectraMax.
CCRF-CEM cells were treated with drug/fatty acid vehicles (control), GT-11 (0.5 μM) alone, sphinganine (4 μM) alone or sphinganine (4 μM) plus GT-11 (0.5 μM) for six hours and subsequently prepared for sphingolipid analysis.
CCRF-CEM cells were treated with GT-11 (0.5 μM) alone, sphinganine (1 μM) alone or sphinganine (1 μM) plus GT-11 (0.5 μM) for six hours and prepared for quantitative analysis. DHCers were normalized to control and plotted as fold change (bar, z-axis). * indicates significance, with P<0.05. […] CCRF-CEM cells were treated with sphinganine (1 μM) plus GT-11 (0.5 μM) with and without specific solubilized fatty acids (carbon chain length (CX) and saturation (:X), Ex: C20:1=fatty acid with 20 carbons and one desaturation) for six hours and prepared for quantitative sphingolipid analysis. Dihydroceramides were normalized to control cells that received sphinganine plus GT-11 with no fatty acid and plotted as fold change (bar, z-axis). * indicates significance, with P<0.05.

CCRF-CEM = tested on: CCRF-CEM
Description: Statistical analyses. Descriptive statistics and significance testing were performed using Microsoft Excel. The Excel function “t.test” was used for Student's T-testing (two-tailed, type-2). Propagated standard deviations were calculated using standard methods. Correlation analyses were performed using Sigmaplot 11 software. […]
Due to the confounding effect of in vitro fatty acid conversion, correlation analyses were used to identify significant relationships between absolute levels of specific sphingolipids and cytotoxicity. […]

[2] = tested on: MCF-7 breast cancer cells; assay: DIMSCAN cytotoxicity assay, MCF-7; type: cell-based; settings: MCF-7, fatty acid 5 micromolar
Description: (§1) Cell culture. The pre-T acute lymphoblastic leukemia cell lines MOLT-4 and CCRF-CEM, small cell lung cancer cell line NCI-H146, non-small cell lung cancer cell line NCI-H1792, colon cancer cell lines LoVo and HT-29, and breast cancer cell line MCF-7, were purchased from American Type Culture Collection, Manassas, Va., and grown at 20%/5% and 5%/5%, respectively. COG-LL-317 and COG-LL-332 pre-T acute lymphoblastic leukemia cell lines were obtained from the TTUHSC Cancer Center Cell Repository and grown at 5%/5%. Cell line identities were verified by short tandem repeat analysis and mycoplasma testing was performed. Cell lines were maintained in RPMI-1640 medium supplemented with 10% fetal bovine serum (FBS, Invitrogen) in humidified, 37° C. incubators. For all experiments, ALL cell lines were seeded at 2. cells/mL in RPMI-1640 medium supplemented with 15% fetal bovine serum. Solid tumor cell lines were plated at 5×cells/mL in RPMI-1640 medium supplemented with 10% fetal bovine serum.
(§2) Cytotoxicity Assay. Cytoxicity is determined using the DIMSCAN assay system (R. Proffitt et al., Cytometry 24, 204-213 (1996); T. Frgala et al., Proc. AACR, 36, 303 (1995). The system employs digital imaging microscopy to quantify viable cells, which selectively accumulate fluorescein diacetate to become brightly fluorescent. The system is capable of measuring cytotoxicity over a 4-5 log dynamic range by quenching the residual fluorescence of dead and dying cells with eosin Y and quantifying the total fluorescence of viable cells using digital thresholding. Measured fluorescence is directly proportionate to the number of viable cells. A comparison of the total fluorescence of a drug-treated cell population to the fluorescence of a similar number of untreated cells yields a survival fraction.
(§3) In brief, 5,000 to 25,000 cells/well depending on the cell line (5,000 for solid tumor, 25,000 for ALL cell lines) were replicate plated into 60 wells of a 96-well tissue culture plate in 0.1 cc media and allowed to attach or recover overnight. […]

[3] = tested on: NCI-H1792 non-small cell lung cancer cells; assay: DIMSCAN cytotoxicity assay, NCI-H1792; type: cell-based; settings: NCI-H1792, fatty acid 5 micromolar
Description: as §1, §2, §3

[4] = tested on: NCI-H146 small cell lung cancer cells; assay: DIMSCAN cytotoxicity assay, NCI-H146; type: cell-based, human; settings: NCI-H146, fatty acid 5 micromolar
Description: as §1
as §2, with “cells.” for “cells. A comparison of the total fluorescence of a drug-treated cell population to the fluorescence of a similar number of untreated cells yields a survival fraction.”
(§4) In brief, 5,000 to 25,000 cells/well depending on the cell line (5,000 for solid tumor, 25,000 for ALL cell lines) were replicate plated into 60 wells of a 96-well tissue culture plate in 0.1 cc media and allowed to attach or recover overnight. Drug(s) are then added in 0.05 cc media to the final concentrations indicated. […] Total fluorescence of viable cells is then measured by digital imaging microscopy and the signal normalized to control cells. […]

LoVo colon cancer cells = assay: DIMSCAN cytotoxicity assay, LoVo; type: cell-based, human; settings: fatty acid 5 micromolar
Description: as §1
as §2, with “cells.” for “cells. A comparison of the total fluorescence of a drug-treated cell population to the fluorescence of a similar number of untreated cells yields a survival fraction.”
as §4

MOLT-4 ALL cells = assay: DIMSCAN cytotoxicity assay, MOLT-4; type: cell-based, human; settings: MOLT-4, sphinganine 1 μM, GT-11 0.5 μM, 48 hours
Description: as §1
as §2, with “fraction. […]” for “fraction.”
(§5) The addition of C22:0-fatty acid, but not C18:0 or C22:1 fatty acids, increased cytotoxicity (FIGS. 7A-7F). […] Cytotoxicity was measured using DIMSCAN, and data was normalized to control and plotted as survival fraction (y-axis). […]

COG-LL-332 = assay: DIMSCAN cytotoxicity assay, COG-LL-332; type: cell-based; settings: COG-LL-332, sphinganine 1 μM, GT-11 0.5 μM, 48 hours
Description: as §1
as §2, with “fraction. […]” for “fraction.”
as §5

COG-LL-317 = assay: DIMSCAN cytotoxicity assay, COG-LL-317; type: cell-based; settings: COG-LL-317, sphinganine 1 μM, GT-11 0.5 μM, 48 hours
Description: as §1
as §2, with “fraction. […]” for “fraction.”
as §5

[5] = tested on: pre-T acute lymphoblastic leukemia cell lines CCRF-CEM, MOLT-4, COG-LL-317 and COG-LL-332; assay: DIMSCAN cytotoxicity assay across the four pre-T ALL cell lines; type: cell-based, human; settings: COG-LL-317, COG-LL-332, CCRF-CEM, 4-HPR 0-9 μM, 48 hours
Description: as §1, with “For all experiments, ALL cell lines were seeded at 2. cells/mL in RPMI-1640 medium supplemented with 15% fetal bovine serum. Solid tumor cell lines were plated at 5×cells/mL in RPMI-1640 medium supplemented with 10% fetal bovine serum.” left out
as §2, with “A comparison of the total fluorescence of a drug-treated cell population to the fluorescence of a similar number of untreated cells yields a survival fraction.” left out

CCCCCCCCCCCCCCC[C@@H](O)[C@@H](N)CO [Sphinganine, (2S,3R)-2-aminooctadecane-1,3-diol, reference compound]
increase of total ceramide ([1]; sphinganine 4 μM alone, six hours, normalized to control, P<0.001): 1.5 fold | Pearson Coef. (r), sphingolipid level vs cytotoxicity (CCRF-CEM): −0.21 | Spearman Coef. (ρ), sphingolipid level vs cytotoxicity (CCRF-CEM): −0.30

CCCCCCCCCCCCCCCCCCCCCCCC(=O)O [C24:0-fatty acid]
increase in corresponding dihydroceramide over sphinganine plus GT-11 alone [1]: significant increases | effect of fatty acid on fenretinide cytotoxicity [2]: did not increase cytotoxicity | effect of fatty acid on fenretinide cytotoxicity [3]: did not increase cytotoxicity | effect of fatty acid on fenretinide cytotoxicity [4]: did not increase cytotoxicity | effect of fatty acid on fenretinide cytotoxicity (LoVo colon cancer cells): did not increase cytotoxicity

CCCCCCCCCCCCCCCCCCCC(=O)O [C20:0-fatty acid]
increase in C22:0-DHCer over sphinganine plus GT-11 alone ([1]; fatty acid 5 μM in addition to sphinganine 1 μM plus GT-11 0.5 μM, six hours, P<0.001): 12 fold | increase in corresponding dihydroceramide over sphinganine plus GT-11 alone [1]: significant increases

CCCCCCCCCCCCCCCCCC(=O)O [C18:0-fatty acid]
effect of fatty acid on fenretinide cytotoxicity [2]: did not increase cytotoxicity | effect of fatty acid co-treatment on cytotoxicity of sphinganine with GT-11 (MOLT-4 ALL cells): not | effect of fatty acid co-treatment on cytotoxicity of sphinganine with GT-11 (COG-LL-332): not | effect of fatty acid on fenretinide cytotoxicity [3]: did not increase cytotoxicity | effect of fatty acid on fenretinide cytotoxicity [4]: did not increase cytotoxicity | effect of fatty acid co-treatment on cytotoxicity of sphinganine with GT-11 (COG-LL-317): not | effect of fatty acid on fenretinide (4-HPR) cytotoxicity [5]: not | effect of fatty acid on fenretinide cytotoxicity (LoVo colon cancer cells): did not increase cytotoxicity

CCCCCCCCCCCCCCCC(=O)O [C16:0-fatty acid]
increase in corresponding dihydroceramide over sphinganine plus GT-11 alone [1]: significant increases

CCCCCCCC/C=C\CCCCCCCCCCCCCC(=O)O [C24:1-fatty acid]
increase in corresponding dihydroceramide over sphinganine plus GT-11 alone [1]: significant increases

CCCCCCCCCCCCCC(=O)O [C14:0-fatty acid]
increase in corresponding dihydroceramide over sphinganine plus GT-11 alone [1]: significant increases
